Where two headings read alike, the source gives them in different places.
Assays:
2D6 = target: T1, 2D6 (Homo sapiens, UniProt P10635); details: hepatic microsomes; cited from earlier work
T1 construct: In vitro metabolism studies with hepatic microsomes; from tissue; host or cells: hepatic microsomes

[1] = cited from earlier work; for AUC (0-18 hrs) / Cmax: human
[2] = Process temperature development study (60°C dissolution, cooling to 25°C); type: physicochemical
Description: […]. […] The final volume of each formulation was 5 mL. […] Each sample was mixed thoroughly and agitated overnight at 60° C. Rapid cooling and step-wise cooling from 60° C. to 25° C. was performed. HPLC analysis was performed on samples taken after overnight incubation and after cooling to 25° C. Prior to HPLC analysis, formulations were filtered via syringe through a 0.45 μm PVDF filter.

[3] = cited from earlier work; for Cmax: read-out: oral Cmax in IPF patients
[4] = Pharmacokinetics and lung-tissue distribution after oral gavage or intratracheal aerosol; type: in vivo, Sprague-Dawley rats; details: for half-life: po, 70 mg/kg
Description: Solutions were vortexed until all crystals dissolved. […] Plasma samples were taken at pre-dose, 0.08, 0.16, 0.25, 0.5, 0.75, 1.0, 1.5, 2, 4, and 6 hours post dosing. For lung tissue samples, eight additional rats were also dosed 70 mg/kg by the oral route. Lungs were taken at pre-dose 0.08, 0.5, 2, and 4 hours post dosing. Materials were extracted and pirfenidone quantitated as μg/mL plasma and μg/gram lung tissue. […]

[5] = 85% saturation pirfenidone formulations exposed to several temperatures (re-crystallization); type: physicochemical
From the text: However, in all cases pirfenidone eventually re-crystallized. This re-crystallization was not inhibited by pre-filtration of the sample.

[6] = Extended-duration intratracheal and oral pharmacokinetic study; type: in vivo, Wistar rats; details: for AUC(0-t) / Cmax: Wistar, rat, plasma
Description: Previous intratracheal aerosol delivery (see Example 6) was performed as a single bolus instillation just above the first bifurcation of the lung. For in vivo efficacy studies, an attempt was made to mimic tidal inhaled breathing by splitting the dose into equal parts and administering as before, but over a 2 minute period. […] Doses were prepared in 0.45% sodium chloride solution and were administered as described in Table 21.
Plasma samples and entire lungs were taken at pre-dose, 2, 4, 6, 10, 30, 60 and 120 minutes post dosing. Materials were extracted and pirfenidone quantitated as mcg/mL plasma and μg/gram lung tissue.

[7] = oral 801 mg fasted-state, plasma
[8] = 0% EtOH, 8% PG, 0% PS80, 92% phosphate buffer (5 mM), pH 6.6
[9] = 0% EtOH, 8% PG, 0.04% PS80, 92% phosphate buffer (5 mM), pH 6.7
[10] = 4% EtOH, 0% PG, 0.04% PS80, 96% phosphate buffer (5 mM), pH 6.6
[11] = 4% EtOH, 8% PG, 0% PS80, 88% phosphate buffer (5 mM), pH 6.7
[12] = 4% EtOH, 8% PG, 0.04% PS80, 88% phosphate buffer (5 mM), pH 6.7
[13] = inhaled or intranasal, intratracheal aerosol 2.5 mg/kg
[14] = inhaled or intranasal, intratracheal aerosol 5 mg/kg
[15] = inhaled or intranasal, intratracheal aerosol 10 mg/kg
[16] = intratracheal aerosol 2.5 mg/kg

T1 sequence (P10635 whole entry): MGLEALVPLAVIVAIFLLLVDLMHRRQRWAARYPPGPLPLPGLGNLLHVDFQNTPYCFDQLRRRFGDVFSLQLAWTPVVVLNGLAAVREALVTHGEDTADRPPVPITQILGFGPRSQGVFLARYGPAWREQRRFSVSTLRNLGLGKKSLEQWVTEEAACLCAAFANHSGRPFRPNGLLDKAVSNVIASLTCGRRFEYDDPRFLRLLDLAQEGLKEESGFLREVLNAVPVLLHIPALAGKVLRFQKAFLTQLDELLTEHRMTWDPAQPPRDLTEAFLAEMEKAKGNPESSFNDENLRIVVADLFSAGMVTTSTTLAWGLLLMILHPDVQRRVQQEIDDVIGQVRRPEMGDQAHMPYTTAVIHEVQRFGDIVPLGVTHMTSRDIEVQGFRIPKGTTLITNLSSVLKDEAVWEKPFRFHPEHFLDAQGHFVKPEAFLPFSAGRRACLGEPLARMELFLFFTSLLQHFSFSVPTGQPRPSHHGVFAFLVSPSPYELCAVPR

For Cc1ccc(=O)n(-c2ccccc2)c1 [pirfenidone, 5-methyl-1-phenyl-2-(1H)-pyridone], the “contribution to pirfenidone metabolism” value (2D6) is given as “less than 13%”, the T1/2 beta ([1]; aerosol 47 mg RDD, lung tissue, from plasma T1/2, Rubino et al., 2009 fasted-state) is given as 2.5 h and the T1/2 beta ([1]; aerosol 47 mg RDD, plasma, Rubino et al., 2009 fasted-state) is given as 2.5 h. The “AUC (0-18 hrs)” value [1, 7] was 67700 ng·h/mL, the Cmax [1, 7] was 14.2 microgram/mL and the “AUC (0-18 hrs)” value ([1]; oral 801 mg fed-state, plasma) was 58900 ng·h/mL. The Cmax ([1]; oral 801 mg fed-state, plasma) was 7.9 microgram/mL, the T1/2 beta ([1]; oral 801 mg fasted-state, lung tissue, from plasma T1/2, Rubino et al., 2009) was 2.5 h and the T1/2 beta ([1]; oral 801 mg fasted-state, plasma, Rubino et al., 2009) was 2.5 h. The T1/2 beta ([1]; oral 801 mg fed-state, lung tissue, from plasma T1/2, Rubino et al., 2009) was 2.4 h, the T1/2 beta ([1]; oral 801 mg fed-state, plasma, Rubino et al., 2009) was 2.4 h and the “Observations: dissolution after overnight at 60° C.” value (“Observations: dissolution” for short) [2, 8] was “Fully dissolved after overnight at”. For the same compound, the “Observations: time stable at 25° C. before re-crystallization” value (“Observations: time stable” below) [2, 8] was 60 °C Stable at 25 °C for >4 hours, the “Pirfenidone (mg/mL) >60° C., assay content after stepwise cooling to 25° C.” value [2, 8] was 54.6 mg/mL and the “Pirfenidone (mg/mL) >Re-crystal, assay content after stepwise cooling to 25° C. and later re-crystallization” value (shortened to “Pirfenidone (mg/mL) >Re-crystal”) [2, 8] was 18.6 mg/mL. For the same compound, the “Observations: dissolution” value [2, 9] was “Fully dissolved after overnight at”, the “Observations: time stable” value [2, 9] was 60 °C Stable at 25 °C for >4 hours and the “Pirfenidone (mg/mL) >60° C., assay content after stepwise cooling to 25° C.” value [2, 9] was 52.8 mg/mL. For the same compound, the “Pirfenidone (mg/mL) >Re-crystal” value [2, 9] was 22.3 mg/mL, the “Observations: dissolution” value [2, 10] was “Fully dissolved after overnight at” and the “Observations: time stable” value [2, 10] was 60 °C Stable at 25 °C for >4 hours. For the same compound, the “Pirfenidone (mg/mL) >60° C., assay content after stepwise cooling to 25° C.” value [2, 10] was 50.7 mg/mL, the “Pirfenidone (mg/mL) >Re-crystal” value [2, 10] was 22.4 mg/mL and the “Observations: dissolution” value [2, 11] was “Fully dissolved after overnight at”. The “Observations: time stable” value [2, 11] was 60 °C Stable at 25 °C for >4 hours, the “Pirfenidone (mg/mL) >60° C., assay content after stepwise cooling to 25° C.” value [2, 11] was 50.34 mg/mL and the “Pirfenidone (mg/mL) >Re-crystal” value [2, 11] was 27.6 mg/mL. The “Observations: dissolution” value [2, 12] was “Fully dissolved after overnight at”, the “Observations: time stable” value [2, 12] was 60 °C Stable at 25 °C for >4 hours and the “Pirfenidone (mg/mL) >60° C., assay content after stepwise cooling to 25° C.” value [2, 12] was 51.8 mg/mL. For the same compound, the “Pirfenidone (mg/mL) >Re-crystal” value [2, 12] was 26.8 mg/mL, the “behaviour on rapid cooling to 25°C” value ([2]; after dissolution at 60°C) was “rapid recrystallization” and the full dissolution concentration ([2]; heated to 60°C, 5 mM sodium phosphate pH 6.5 with ethanol, propylene glycol and/or polysorbate 80) was at least 50 mg/mL. For the same compound, the “concentration staying in solution” value ([2]; slow step-wise cooling 60 to 25°C, for several hours before re-crystallization) was “about 50 mg/mL”, the “time plasma level at or greater than 5 mcg/mL” value ([3]; 801 mg oral pirfenidone, human-measured value) was 4 h and the “oral Cmax in IPF patients” value ([3]; fasting-state) was “about 15.7 mcg/mL”. The Cmax ([3]; fasting-state) was about 84 µM, the “increase in Tmax” value ([3]; oral, fed-state) was “seven-fold” and the “reduction in Cmax” value ([3]; oral, fed-state) was about 50%. The “reduction in overall exposure” value ([3]; oral, fed-state) was 10-15%, the “oral Cmax in IPF patients” value ([3]; recommended fed-state) was “about 7.9 mcg/mL” and the Cmax ([3]; recommended fed-state) was about 42 µM. For the same compound, the half-life ([4]; Sprague-Dawley, rat, lung, read-out: Lung T1/2 α (only α observed)) was 0.75 h, the half-life ([4]; Sprague-Dawley, rat, plasma, read-out: Plasma T1/2) was 0.5 h and the Cmax ([4]; Sprague-Dawley, rat, plasma, oral 70 mg/kg) was 8100 ng/mL. For the same compound, the AUC(0-t) ([4]; Sprague-Dawley, rat, plasma, oral 70 mg/kg, read-out: Plasma AUC0-6 hrs) was 13500 ng·h/mL, the “Lung Cmax” value ([4]; oral 70 mg/kg) was 3.6 µg/g and the “Lung TOE, time of exposure over 1 μg/g lung tissue” value ([4]; oral 70 mg/kg) was 89 min. The Recrystallization upon storage ([5]; overnight at 4° C., 23.0 mg/mL (85% saturation), 4% EtOH, 8% PG, 88% phosphate buffer (5 mM), pH 6.6) was “No”, the Recrystallization upon storage ([5]; overnight at 4° C., 29.5 mg/mL, 6% EtOH, 12% PG, 82% phosphate buffer (5 mM), pH 7.0) was “No” and the Recrystallization upon storage ([5]; overnight at 4° C., […], 8% EtOH, 16% PG, 76% phosphate buffer (5 mM), pH 7.0) was “No”. The Recrystallization upon storage ([5]; overnight at 15° C., 23.0 mg/mL (85% saturation), 4% EtOH, 8% PG, 88% phosphate buffer (5 mM), pH 6.6) was “No”, the Recrystallization upon storage ([5]; overnight at 15° C., 29.5 mg/mL, 6% EtOH, 12% PG, 82% phosphate buffer (5 mM), pH 7.0) was “No” and the Recrystallization upon storage ([5]; overnight at 15° C., […], 8% EtOH, 16% PG, 76% phosphate buffer (5 mM), pH 7.0) was “No”. The Recrystallization upon storage ([5]; overnight at 25° C., 23.0 mg/mL (85% saturation), 4% EtOH, 8% PG, 88% phosphate buffer (5 mM), pH 6.6) was “No”, the Recrystallization upon storage ([5]; overnight at 25° C., 27.2 mg/mL (saturation solubility), 4% EtOH, 8% PG, 88% phosphate buffer (5 mM), pH 6.6) was “Yes” and the Recrystallization upon storage ([5]; overnight at 25° C., 29.5 mg/mL, 6% EtOH, 12% PG, 82% phosphate buffer (5 mM), pH 7.0) was “No”. The Recrystallization upon storage ([5]; overnight at 25° C., 34.7 mg/mL, 6% EtOH, 12% PG, 82% phosphate buffer (5 mM), pH 7.0) was “Yes”, the Recrystallization upon storage ([5]; overnight at 25° C., 43.7 mg/mL, 8% EtOH, 16% PG, 76% phosphate buffer (5 mM), pH 7.0) was “Yes” and the Recrystallization upon storage ([5]; overnight at 25° C., […], 8% EtOH, 16% PG, 76% phosphate buffer (5 mM), pH 7.0) was “No”. The Recrystallization upon storage ([5]; overnight at −20° C., 23.0 mg/mL (85% saturation), 4% EtOH, 8% PG, 88% phosphate buffer (5 mM), pH 6.6, crystals re-dissolved at 25° C. without agitation) was “Yes^f”, the Recrystallization upon storage ([5]; overnight at −20° C., 29.5 mg/mL, 6% EtOH, 12% PG, 82% phosphate buffer (5 mM), pH 7.0, crystals re-dissolved at 25° C. without agitation) was “Yes^f” and the Recrystallization upon storage ([5]; overnight at −20° C., […], 8% EtOH, 16% PG, 76% phosphate buffer (5 mM), pH 7.0, crystals re-dissolved at 25° C. without agitation) was “Yes^f”. For the same compound, the “Lung Tissue Cmax” value ([6]; 30 mg/kg PO, rat (Table 22)) was about 10 µg/mL, the AUC(0-t) [6, 13] was 3200 ng·h/mL and the Cmax [6, 13] was 3400 ng/mL. The AUC(0-t) [6, 14] was 5800 ng·h/mL, the Cmax [6, 14] was 8800 ng/mL and the AUC(0-t) [6, 15] was 14600 ng·h/mL. The Cmax [6, 15] was 22800 ng/mL, the AUC(0-t) ([6]; oral gavage 10 mg/kg) was 4400 ng·h/mL and the Cmax ([6]; oral gavage 10 mg/kg) was 3600 ng/mL. It also gave an AUC(0-t) ([6]; oral gavage 30 mg/kg) of 12900 ng·h/mL, a Cmax ([6]; oral gavage 30 mg/kg) of 9800 ng/mL and an AUC(0-t) ([6]; oral gavage 100 mg/kg) of 24200 ng·h/mL. The Cmax ([6]; oral gavage 100 mg/kg) was 26300 ng/mL, the Lung Tissue AUC(0-2 hr) [6, 16] was 3.5 µg·h/g and the “Lung Tissue Cmax” value [6, 16] was 14.4 μg/gram. For the same compound, the Lung Tissue AUC(0-2 hr) ([6]; intratracheal aerosol 5 mg/kg) was 6.6 µg·h/g, the “Lung Tissue Cmax” value ([6]; intratracheal aerosol 5 mg/kg) was 27.9 μg/gram and the Lung Tissue AUC(0-2 hr) ([6]; intratracheal aerosol 10 mg/kg) was 14.5 µg·h/g. For the same compound, the “Lung Tissue Cmax” value ([6]; intratracheal aerosol 10 mg/kg) was 61.1 μg/gram, the adverse events ([6]; intratracheal aerosol over 2 minutes or oral gavage, Wistar rats) was “No adverse events were noted” and the Lung Tissue AUC(0-2 hr) ([6]; oral gavage 10 mg/kg) was 4.9 µg·h/g. The “Lung Tissue Cmax” value ([6]; oral gavage 10 mg/kg) was 3.5 μg/gram, the Lung Tissue AUC(0-2 hr) ([6]; oral gavage 30 mg/kg) was 13.5 µg·h/g and the “Lung Tissue Cmax” value ([6]; oral gavage 30 mg/kg) was 9.8 μg/gram. For the same compound, the Lung Tissue AUC(0-2 hr) ([6]; oral gavage 100 mg/kg) was 27.9 µg·h/g and the “Lung Tissue Cmax” value ([6]; oral gavage 100 mg/kg) was 33.6 μg/gram.
